Results reported in patent publication US7718377B2, “Insulin resistance curative and method of screening the same” (Kyoto Pharmaceutical Industries, Ltd., priority 2003, dated 2010).
Values belong to the compound of their own block, whether it stands above or below them.

How the values were obtained:
human PTP-1B (1-321) = target: T1, human PTP-1B (1-321) (Homo sapiens, UniProt P18031); assay: Determination of PTP-1B enzyme inhibitory activity (phosphopeptide substrate, malachite green); assay type: biochemical; conditions: each compound 100 μM; peptide substrate, 37° C., 10 min
T1 construct: ID No.2; made in house; host or cells: Escherichia coli BL21 DE3 (plasmid pET-hPTP1B (1-321), vector pET-11c)
T1 sequence (P18031 1-321): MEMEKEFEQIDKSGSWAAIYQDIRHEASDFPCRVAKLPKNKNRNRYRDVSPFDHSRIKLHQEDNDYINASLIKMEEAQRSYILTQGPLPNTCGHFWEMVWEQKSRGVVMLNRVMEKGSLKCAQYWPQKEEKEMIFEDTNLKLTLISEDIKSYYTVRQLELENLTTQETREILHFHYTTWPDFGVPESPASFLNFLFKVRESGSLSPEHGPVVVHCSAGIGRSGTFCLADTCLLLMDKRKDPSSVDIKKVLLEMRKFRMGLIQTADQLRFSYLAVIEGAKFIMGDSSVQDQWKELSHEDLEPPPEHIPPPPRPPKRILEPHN
Excerpt: As the substrates for PTP-1B enzyme reaction, synthetic peptides consisting of the following amino acid sequence: • Thr-Arg-Asp-Ile-Tyr (PO4)-Glu-Thr-Asp-Tyr (PO4)-Tyr (PO4)-Arg-Lys (SEQ; NO. 5), wherein 3 tyrosines had been all phosphorylated, were used (synthesis committed to Shimadzu Scientific Research Inc. (Chiyoda-ku, Tokyo)). [According to the amino acid numbers based on the report of Ullrich et al. (Nature, vol. 313, pages 756-761, 1985), this amino acid sequence corresponds to Nos. 1142-1153 of insulin receptor, and corresponds to Nos. 1169-1180 in the amino acid sequence of the insulin receptor precursor registered in Genbank No. X02160.]
This peptide substrate and a PTP-1B enzyme were reacted and the enzyme activity was determined by quantitation of inorganic phosphoric acid released from the substrate by the reaction. The decreased enzyme activity in the presence of a test compound during the enzyme reaction was taken as the enzyme inhibitory activity. Specifically, the following method was performed.
A peptide substrate (synthesis committed to Shimadzu Scientific Research Inc.) was dissolved in a buffer (20 mM imidazole (pH 7.0), 50 mM NaCl, 5 mM DTT and 2.5 mM EDTA) to 300 μM, and cryopreserved.
The PTP-1B solution obtained earlier was diluted with a buffer (20 mM imidazole (pH 7.0), 50 mM NaCl, 5 mM DTT, 2.5 mM EDTA, and 0.05% Nonidet P-40) to 200 ng/ml.
A 96 well microtiter plate [Costar 3695 (half area) Corning] was used and a buffer [39 μl, 20 mM imidazole (pH 7.0), 50 mM NaCl, 5 mM DTT, 2.5 mM EDTA], a PTP-1B enzyme solution (5 μl), and a solution (5 mM, 1 μl) of a test compound in dimethylsulfoxide (DMSO) were added to each well. As a control, solvent (DMSO, 1 μl) was added instead of the DMSO solution of test compound. After preincubation at 37° C. for about 10 min, a peptide substrate solution (300 μM, […]) was added and the mixture was incubated at 37° C. for 10 min.
For quantitation of released inorganic phosphoric acid, malachite green solution (90 μl, manufactured by BIOMOL Research Laboratories, Inc.) was added to each well, and the mixture was left standing at room temperature for about 10 min and the absorbance at 650 nm was measured with a microplate reader. Linearity was mostly observed between the absorbance and the phosphoric acid concentration generally within the absorbance range of from 0.05 to 0.6 (phosphoric acid from about […]) under these conditions.
The PTP-1B inhibitory activity of the test compound was obtained by the following calculation formula. Inhibitory activity (%)=[…]

[1] = target: T2, GAL4-PPARγ chimeric receptor (human PPARγ ligand binding site) (Homo sapiens, UniProt P37231); assay: Determination of PPARγ activation ability (GAL4-PPARγ luciferase reporter assay in HEK293 cells); assay type: cell-based; conditions: each compound 1 μM; amount of luminescence relative to control; value greater than 1 = activation ability
T2 construct: a GAL4-PPARγ chimeric receptor containing amino acid Nos. 1-147 of yeast transcription factor GAL4 on the amino terminal and Nos. 175-475; expressed in transfected cells; host or cells: HEK293 (plasmid pM-PPARγ co-transfected with reporter pFR-Luc)
T2 sequence (P37231 with tags, fused parts or gaps): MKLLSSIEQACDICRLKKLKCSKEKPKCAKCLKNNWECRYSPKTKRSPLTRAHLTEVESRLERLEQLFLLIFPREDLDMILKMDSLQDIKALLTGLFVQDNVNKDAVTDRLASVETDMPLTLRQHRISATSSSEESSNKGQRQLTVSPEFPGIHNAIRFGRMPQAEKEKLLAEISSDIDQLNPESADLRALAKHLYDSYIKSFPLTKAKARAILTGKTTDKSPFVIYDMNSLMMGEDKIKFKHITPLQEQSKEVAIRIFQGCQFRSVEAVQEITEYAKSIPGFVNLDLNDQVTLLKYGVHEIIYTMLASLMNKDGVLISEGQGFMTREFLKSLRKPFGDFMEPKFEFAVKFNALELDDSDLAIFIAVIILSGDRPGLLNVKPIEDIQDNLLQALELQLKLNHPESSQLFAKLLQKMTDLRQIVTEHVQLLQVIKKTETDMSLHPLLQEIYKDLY
Method: As a method for determining the ability of a compound to activate PPARγ (hereinafter PPARγ activation ability), a test by a reporter assay was performed with reference to the report of Kliewer et al. (Journal of Biological Chemistry, 1995, vol. 270(22), p. 12953-12956).
With reference to the report of Kliewer, a gene expressing a GAL4-PPARγ receptor, wherein human PPARγ ligand binding site (corresponding to about 300 amino acids on carboxy terminal) is bound with a DNA binding site (corresponding to 147 amino acids on amino terminal region) of yeast transcription factor GAL4, was prepared.
The plasmid pM-PPARγ obtained earlier, and plasmid pFR-Luc purchased from [sequence] CLONING SYSTEMS were each dissolved in desalted water to a concentration of 1 mg/1 ml.
A human fetal kidney-derived cell line HEK293 (American Type Culture Collection CRL-1573) was sown in a 75 cm^2 culture flask, and cultured in Dulbecco's Modified Eagle medium containing 10% fetal bovine serum (hereinafter a medium) under the conditions of 37° C., 5% CO2 until it reached nearly 80% confluent.
Using 7.5 μg of plasmid pM-PPARγ and 7.5 μg of plasmid pFR-Luc, both per flask, as well as a FuGENE6 transfection reagent (manufactured by Rosch Diagnostics) the plasmids were transfected to HEK293 cells and cultured overnight.
The next day, the cells were treated with trypsin and recovered. A 96 well plate coated with poly-L-lysine (IWAKI poly-L-lysine coated 96 well plate, manufactured by ASAHI TECHNOGLASS) was prepared, the cells were sown at about 50,000 cells/well, 90 μl, using the medium and cultured overnight.
The test compound was dissolved in DMSO at a concentration of 10 mM. This was diluted 1,000-fold with the medium, and 10 μl therefrom was added to the well in which cells were growing. The treatment concentration in the cell was 1 μM. After the addition, the cells were cultured overnight.
The next day, the medium was removed, and the cells were washed with phosphate buffered saline containing 1 mM magnesium and 1 mM calcium chloride. PicaGene LT FR manufactured by Wako Pure Chemical Industries, Ltd. was diluted 2-fold with the same saline and the solution was added to each well by 200 μl. After standing the mixture for about 1 hr, it was stirred and 180 μl thereof was taken from each well and placed in a white 96 well plate (OptiPlate 96, manufactured by Packard), applied to TopCount (manufactured by Packard) and the amount of luminescence of each well was measured for 6 seconds.
The PPARγ activation ability of the test compound was determined by the following calculation formula: PPARγ activation ability=(amount of luminescence [in the presence of each compound (1 μM)]}/[amount of luminescence (control)]

male Zucker Fatty rats = assay: Expression suppressive action on edema and the like: 2-week oral administration, insulin and blood cell parameters; assay type: in vivo, rat
Excerpt: For the test, male Zucker Fatty rats (6-week-old, Japan SLC) were used. During the acclimation period for 1 week and test period, feed (FR-2 (Funabashi Farm)) and water were freely given.
Blood was taken from the tail vain using a heparin-coated hematocrit tube and an EDTA-added hematocrit tube, and a part thereof was preserved as a whole blood and the rest was centrifuged and plasma was collected and subjected to the measurement of biochemical parameter (insulin). For insulin measurement, a rat Insulin RIA kit (US Linco) was used, and all the samples were collectively measured after the completion of administration. The whole blood sample was subjected to the measurement of blood cell parameters (erythrocyte concentration, hemoglobin concentration) using an automatic blood cell measurement apparatus (KX-21N, Sysmex Corporation).
At the beginning of the test, blood was taken from all the rats, and randomly grouped to make the parameters (body weight, erythrocyte, hemoglobin and the like) almost the same. […] The start of the administration was day 0, and the animals were fasted for about 16 hr from the evening of day 13. Blood was taken and measured for each parameter.

SMILES: CC(C)(C)N.CC=CC=CC(=O)N1Cc2cc(OCCc3nc(/C=C/CCCC)oc3C)ccc2C[C@H]1C(=O)O (stereo in doubt) [Reference Example 27, 2-(2,4-hexadienoyl)-7-{2-[2-(trans-1-hexen-1-yl)-5-methyloxazol-4-yl]ethoxy}-1,2,3,4-tetrahydroisoquinoline-(3S)-carboxylic acid tert-butylamine Salt]
inhibitory activity (%) (human PTP-1B (1-321)): 88%
PPARγ activation ability [1]: 5.9

SMILES: CC(C)(C)N.CC=CC=CC(=O)N1Cc2cc(OCCc3nc(/C=C/C4CCCC4)oc3C)ccc2C[C@H]1C(=O)O (stereo in doubt) [Reference Example 22, 7-{2-[2-(trans-2-cyclopentylvinyl)-5-methyloxazol-4-yl]ethoxy}-2-(2,4-hexadienoyl)-1,2,3,4-tetrahydroisoquinoline-(3S)-carboxylic acid tert-butylamine Salt]
inhibitory activity (%) (human PTP-1B (1-321)): 95%
PPARγ activation ability [1]: 5.1

SMILES: CC(C)(C)N.CCCCC=CC(=O)N1Cc2cc(OCCc3nc(/C=C/CC(C)C)oc3C)ccc2C[C@H]1C(=O)O (stereo in doubt) [Reference Example 24, 2-(2-heptenoyl)-7-{2-[5-methyl-2-(4-methyl-trans-1-penten-1-yl)oxazol-4-yl]ethoxy}-1,2,3,4-tetrahydroisoquinoline-(3S)-carboxylic acid tert-butylamine Salt]
inhibitory activity (%) (human PTP-1B (1-321)): 92%
PPARγ activation ability [1]: 9.4

SMILES: CC(C)(C)N.CC=CC=CC(=O)N1Cc2cc(OCCc3nc(/C=C/CCCF)oc3C)ccc2C[C@H]1C(=O)O (stereo in doubt) [Reference Example 66, 7-{2-[2-(5-fluoro-trans-1-penten-1-yl)-5-methyloxazol-4-yl]ethoxy}-2-(2,4-hexadienoyl)-1,2,3,4-tetrahydroisoquinoline-(3S)-carboxylic Acid tert-butylamine Salt]
inhibitory activity (%) (human PTP-1B (1-321)): 80%
PPARγ activation ability [1]: 3.0

SMILES: CC(C)(C)N.CC=CC=CC(=O)N1Cc2cc(OCCc3coc(/C(C)=C/CCC)n3)ccc2C[C@H]1C(=O)O (stereo in doubt) [Reference Example 83, 2-(2,4-hexadienoyl)-7-{2-[2-(1-methyl-trans-1-penten-1-yl)oxazol-4-yl]ethoxy}-1,2,3,4-tetrahydroisoquinoline-(3S)-carboxylic Acid-tert-butylamine Salt]
inhibitory activity (%) (human PTP-1B (1-321)): 82%
PPARγ activation ability [1]: 3.1

SMILES: CC(C)(C)N.CC=CC=CC(=O)N1Cc2cc(OCCc3nc(/C=C/C4CCCCC4)oc3C)ccc2C[C@H]1C(=O)O (stereo in doubt) [Reference Example 40, 7-{2-[2-(trans-2-cyclohexylvinyl)-5-methyloxazol-4-yl]ethoxy}-2-(2,4-hexadienoyl)-1,2,3,4-tetrahydroisoquinoline-(3S)-carboxylic acid tert-butylamine Salt]
inhibitory activity (%) (human PTP-1B (1-321)): 90%
PPARγ activation ability [1]: 5.4

inhibition at 100 µM (human PTP-1B (1-321)): < 10%
SMILES: CN(CCOc1ccc(CC2SC(=O)NC2=O)cc1)c1ccccn1 (stereo not drawn) [Rosiglitazone, reference compound]

SMILES: CC(C)(C)N.CC=CC=CC(=O)N1Cc2cc(OCCc3nc(/C=C/CCC(C)C)oc3C)ccc2C[C@H]1C(=O)O (stereo in doubt) [Reference Example 30, 2-(2,4-hexadienoyl)-7-{2-[5-methyl-2-(5-methyl-trans-1-hexen-1-yl)oxazol-4-yl]ethoxy}-1,2,3,4-tetrahydroisoquinoline-(3S)-carboxylic acid tert-butylamine Salt]
inhibitory activity (%) (human PTP-1B (1-321)): 96%
PPARγ activation ability [1]: 6.2
hemoglobin concentration (male Zucker Fatty rats; 30 mg/kg, po, once-daily, 2 consecutive weeks, FIG. 1): somewhat lower than those of the control group, but maintained at a remarkably high level as compared to the rosiglitazone administration group
insulin lowering action (blood insulin concentration) (male Zucker Fatty rats; 30 mg/kg, po, once-daily, 2 consecutive weeks, FIG. 2): equivalent to that of the rosiglitazone
erythrocyte concentration (male Zucker Fatty rats; 30 mg/kg, po, once-daily, 2 consecutive weeks, FIG. 3): somewhat lower than those of the control group, but maintained at a remarkably high level as compared to the rosiglitazone administration group
blood dilution (decrease in the concentrations of hemoglobin and erythrocyte) (male Zucker Fatty rats; compared with rosiglitazone administration group): markedly suppressed

SMILES: CC(C)(C)N.CC=CC=CC(=O)N1Cc2cc(OCCc3nc(/C(C)=C/CCC)oc3C)ccc2C[C@H]1C(=O)O (stereo in doubt) [Reference Example 33, 2-(2,4-hexadienoyl)-7-{2-[5-methyl-2-(1-methyl-trans-1-penten-1-yl)oxazol-4-yl]ethoxy}-1,2,3,4-tetrahydroisoquinoline-(3S)-carboxylic acid tert-butylamine Salt]
inhibitory activity (%) (human PTP-1B (1-321)): 92%
PPARγ activation ability [1]: 6.5
